Laboratory results as given in patent US7994198B2, “Piperidinetriol derivatives as inhibitors of glycosylceramidsynthase” (Actelion Pharmaceuticals Ltd., priority 2002, dated 2011).
Like-named read-outs stand apart in the source and are kept apart here.

What was measured:
[1] = molecular target: T1, non-lysosomal-β-glucocerebrosidase (Homo sapiens, UniProt Q9HCG7); assay: Inhibition of non-lysosomal-β-glucocerebrosidase (whole cell extracts of MCF7); assay type: biochemical
T1 construct: endogenous in cells; host or cells: MCF7 whole cell extracts
T1 sequence (Q9HCG7 1-927): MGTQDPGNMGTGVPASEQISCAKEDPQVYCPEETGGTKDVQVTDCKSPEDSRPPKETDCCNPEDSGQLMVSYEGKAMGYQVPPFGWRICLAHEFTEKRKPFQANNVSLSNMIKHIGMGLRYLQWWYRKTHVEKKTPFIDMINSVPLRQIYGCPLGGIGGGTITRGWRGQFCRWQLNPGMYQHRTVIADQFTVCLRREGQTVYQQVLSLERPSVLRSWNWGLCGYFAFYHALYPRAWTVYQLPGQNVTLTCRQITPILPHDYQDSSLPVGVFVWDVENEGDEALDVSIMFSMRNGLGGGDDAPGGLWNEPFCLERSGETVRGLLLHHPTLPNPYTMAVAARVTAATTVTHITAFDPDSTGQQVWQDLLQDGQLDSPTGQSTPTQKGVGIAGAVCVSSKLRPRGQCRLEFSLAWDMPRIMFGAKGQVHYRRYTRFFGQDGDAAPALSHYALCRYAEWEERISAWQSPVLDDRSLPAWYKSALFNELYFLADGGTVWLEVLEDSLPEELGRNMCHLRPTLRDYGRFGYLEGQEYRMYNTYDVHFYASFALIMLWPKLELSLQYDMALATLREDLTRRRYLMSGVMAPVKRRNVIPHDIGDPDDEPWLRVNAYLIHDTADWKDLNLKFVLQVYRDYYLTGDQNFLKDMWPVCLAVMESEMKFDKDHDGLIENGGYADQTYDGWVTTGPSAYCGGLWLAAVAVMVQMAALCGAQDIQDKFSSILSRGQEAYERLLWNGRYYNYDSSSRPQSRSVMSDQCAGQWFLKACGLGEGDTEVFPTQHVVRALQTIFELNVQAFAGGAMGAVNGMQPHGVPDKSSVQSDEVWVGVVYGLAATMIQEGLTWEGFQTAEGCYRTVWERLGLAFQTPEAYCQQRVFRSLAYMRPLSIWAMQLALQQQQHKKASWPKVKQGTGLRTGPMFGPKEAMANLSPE
Description: The assay for inhibition of non-lysosomal-β-glucocerebrosidase was essentially carried out as described in Overkleeft, H. S. et al., J. Biol. Chem., (1998) 273, 26522-26527 with the following differences: whole cell extracts of MCF7 (a human breast carcinoma cell line) was used as the source of the enzyme instead of splenic membrane suspensions; 5mM instead of 3Mm, 4-MU β-glucoside was used as substrate and 0.2M citrate/phosphate (pH 5.8) was used instead of McIlvaine buffer.

human GCS [2] = molecular target: T2, human GCS (Homo sapiens, UniProt Q16739); assay: Inhibition of GCS (human recombinant GCS expressed in insect cells); assay type: biochemical; set-up: made in house; host or cells: insect cells
T2 sequence (Q16739 1-394): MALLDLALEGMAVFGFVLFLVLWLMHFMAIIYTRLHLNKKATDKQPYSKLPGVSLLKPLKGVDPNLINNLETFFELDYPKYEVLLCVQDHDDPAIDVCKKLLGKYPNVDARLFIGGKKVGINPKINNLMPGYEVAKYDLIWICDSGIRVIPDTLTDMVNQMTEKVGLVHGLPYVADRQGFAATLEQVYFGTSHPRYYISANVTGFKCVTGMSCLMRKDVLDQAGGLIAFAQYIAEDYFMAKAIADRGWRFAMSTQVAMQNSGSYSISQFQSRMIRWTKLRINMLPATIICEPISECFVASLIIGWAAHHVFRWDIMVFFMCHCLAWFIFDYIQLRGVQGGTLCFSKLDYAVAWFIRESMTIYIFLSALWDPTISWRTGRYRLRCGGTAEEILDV

human GCS [3] = molecular target: T2, human GCS; assay: Cell-based IC50 for GCS inhibition by measuring glucosylceramide (GlcCer) depletion in MCF-7 cells; conditions: MCF-7 cells cultured 5-7 days; GlcCer depletion by HPTLC; read-out: Inhibition of GCS Cellular-based (IC50 μM)
glycolipid biosynthesis = conditions: as disclosed in EP-A-0698012; cited from earlier work

| SMILES | IC50 [1] | IC50 (human GCS [2]) | Inhibition of glycolipid biosynthesis (glycolipid biosynthesis) | further results |
| --- | --- | --- | --- | --- |
| C[C@@H](NC(=O)c1ccc(CN2C[C@H](O)[C@@H](O)[C@@H](O)[C@@H]2CO)cc1)c1ccc(F)cc1 [Example 7, Benzamide, N-[1-(R)-(4-fluorophenyl)ethyl]-4-[[(2S,3S,4R,5S)-3,4,5-trihydroxy-2-(hydroxymethyl)-1-piperidinyl]methyl]-,] | > 100 µM | 4.7 µM | – | – |
| C[C@@H](NC(=O)c1ccc(CN2C[C@H](O)[C@@H](O)[C@@H](O)[C@@H]2CO)cc1)c1ccccc1 [Example 6, Benzamide, N-[1-(R)-(phenyl)ethyl]4-[[(2S,3S,4R,5S)-3,4,5-trihydroxy-2-(hydroxymethyl)-1-piperidinyl]methyl]-,] | – | – | – | IC50 (human GCS [3]): 1 µM |
| CCCCN1C[C@@H](O)[C@H](O)[C@H](O)[C@@H]1C [NB-DFJ] | – | – | do not act as inhibitors of glycolipid biosynthesis | – |
| CCCCN1C[C@H](NC(C)=O)[C@@H](O)[C@H](O)[C@H]1CO [NB-NAG] | – | – | do not act as inhibitors of glycolipid biosynthesis | – |
| CCCCN1C[C@@H](O)[C@@H](O)[C@H](O)[C@H]1CO [NB-DMJ] | – | – | do not act as inhibitors of glycolipid biosynthesis | – |
| C[C@H](NC(=O)c1ccc(CN2C[C@H](O)[C@@H](O)[C@@H](O)[C@@H]2CO)cc1)c1ccccc1 [Example 3, Benzamide, N-[1-(S)-(phenyl)ethyl]-4-[[(2S,3S,4R,5S)-3,4,5-trihydroxy-2-(hydroxymethyl)-1-piperidinyl]methyl]-,] | 14.9 µM | 7.2 µM | – | – |
| O=C(NCc1ccc(F)cc1)c1ccc(CN2C[C@H](O)[C@@H](O)[C@@H](O)[C@@H]2CO)cc1 [Example 1, Benzamide, N-[(4-fluorophenyl)methyl]4-[[(2S,3S,4R,5S)-3,4,5-trihydroxy-2-(hydroxymethyl)-1-piperidinyl]methyl]-,] | – | 2.2 µM | – | – |
| OC[C@H]1[C@H](O)[C@H](O)[C@@H](O)CN1Cc1ccc(OCc2ccccc2)cc1 [Example 2, 3,4,5-Piperidinetriol, 2-(hydroxymethyl)-1-[[4-(phenylmethoxy)phenyl]methyl]-, (2S,3S,4R,5S)] | 9.4 µM | 0.66 µM | – | IC50 (human GCS [3]): < 0.1 µM |
| CCCN(CCC)c1ccc(CN2C[C@H](O)[C@@H](O)[C@@H](O)[C@@H]2CO)cc1C#N [Example 4, 3,4,5-Piperidinetriol, 1-[(3-cyano-4-(dipropylamino)phenyl)methyl]-2-(hydroxymethyl), (2S,3S,4R,5S)] | – | 0.62 µM | – | IC50 ([1]; MCF7 whole cell extract, 5mM 4-MU β-glucoside, citrate/phosphate pH 5.8, read-out: Inhibition of non-lysosomal-β-glucocerebrosidase (IC50 μM)): 1.93 µM |
